# Assay results reported in patent US6962920B2, “Pyrimidine derivatives and methods of making and using these derivatives” (Duquesne University of the Holy Ghost, priority 1992, dated 2005).
# Assays:
# CCRF-CEM cells = test: Growth inhibition of CCRF-CEM human leukemia cells, continuous exposure; assay type: cell-based; details: Table 8, continuous (0-120 hours) exposure, read-out: Growth inhibition EC50, CCRF-CEM
# R2 cells = test: Growth inhibition of R2 subline (MTX-transport deficient); assay type: cell-based; details: Homo sapiens; Table 8; continuous (0-120 hours) exposure; read-out: Growth inhibition EC50, R2
# FaDu = test: Growth inhibition of FaDu human squamous carcinoma cell line; assay type: cell-based; details: Homo sapiens, FaDu; Table 9; continuous (120 hours) exposure; read-out: Growth inhibition EC50, FaDu
# [1] = molecular target: T1, CCRF-CEM human leukemia cell folylpolyglutamate synthetase (Homo sapiens, UniProt Q05932); test: Substrate activity for CCRF-CEM folylpolyglutamate synthetase; assay type: biochemical; details: Table 10
# T1 construct: substrates for human leukemia cell CCRF-CEM folylpolyglutamate synthetase; endogenous in cells; host or cells: CCRF-CEM human leukemia cells
# T1 sequence (Q05932 43-587): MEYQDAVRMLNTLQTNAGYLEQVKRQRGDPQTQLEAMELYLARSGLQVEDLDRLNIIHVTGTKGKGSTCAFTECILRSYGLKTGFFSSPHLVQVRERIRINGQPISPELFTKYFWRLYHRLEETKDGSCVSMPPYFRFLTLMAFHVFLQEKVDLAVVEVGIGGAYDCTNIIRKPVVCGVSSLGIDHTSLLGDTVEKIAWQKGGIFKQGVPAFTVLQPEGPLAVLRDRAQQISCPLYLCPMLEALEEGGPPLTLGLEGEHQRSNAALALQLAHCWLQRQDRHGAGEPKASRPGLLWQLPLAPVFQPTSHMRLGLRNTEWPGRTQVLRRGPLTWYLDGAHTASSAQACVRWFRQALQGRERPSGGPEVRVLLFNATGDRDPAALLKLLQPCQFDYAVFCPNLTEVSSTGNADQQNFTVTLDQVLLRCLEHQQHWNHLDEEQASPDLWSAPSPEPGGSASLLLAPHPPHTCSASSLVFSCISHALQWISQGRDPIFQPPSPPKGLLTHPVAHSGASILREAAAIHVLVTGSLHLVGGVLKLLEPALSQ
# Protocol: Aminopterin is a classical 2,4-diamino antifolate substrate.
# Compounds 33 and 34 were also evaluated for their substrate activity in CCRF-CEM human leukemia folylpolyglutamate synthetase; the compounds were compared against aminopterin.
# HOP-62 = assay type: cell-based; details: Homo sapiens; HOP-62, Non-Small Cell Lung Cancer
# HCC-2998 = test: NCI in vitro anti-cancer activity, Colon Cancer; assay type: cell-based; details: Homo sapiens; HCC-2998, Colon Cancer
# L. casei DHFR = L. casei DHFR (Lacticaseibacillus casei, UniProt P00381); test: Inhibition of Lactobacillus casei DHFR; assay type: biochemical; details: at […] 10^−5
# Chain of L. casei DHFR (P00381 whole entry): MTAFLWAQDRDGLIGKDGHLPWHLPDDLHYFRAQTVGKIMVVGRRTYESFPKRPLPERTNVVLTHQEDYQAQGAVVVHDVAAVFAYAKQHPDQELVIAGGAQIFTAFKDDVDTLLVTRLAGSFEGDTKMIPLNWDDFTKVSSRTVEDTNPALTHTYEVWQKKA
EC50 (CCRF-CEM cells) [nM],EC50 (FaDu) [nM],Vmax(rel) ([1]; relative to aminopterin),Km ([1]; substrate for FPGS) [µM],SMILES,EC50 (R2 cells) [nM],GI50 (HOP-62) [nM],GI50 (HCC-2998) [nM],"% inhibition obtained at the stated concentration, L. casei DHFR (L. casei DHFR) [%]"
12.8 ± 2.2,22 ± 4,0.72 ± 0.07,< 1,Nc1nc(N)c2c(CNc3ccc(C(=O)N[C@@H](CCC(=O)O)C(=O)O)cc3)c[nH]c2n1 [Compound 9],1650 ± 200,< 10,< 10,
,,,,COc1ccc(CCc2cn(Cc3ccccc3)c3nc(N)nc(C)c23)cc1 [Compound 113-118],,,,0
